Experimental data as given in article PMC9000480, “Enhancement of the Anti-Inflammatory Activity of NSAIDs by Their Conjugation with 3,4,5-Trimethoxybenzyl Alcohol” (Molecules, 2022).
Marks after values point to notes of the source that are not given here.

What was measured:
[1] = test system: carrageenan-induced rat paw edema; experiment: carrageenan-induced rat paw edema; assay type: in vivo; settings: i.p. 0.15 mmol/kg, 3.5 h post carrageenan, female rats, vs controls given carrageenan only; for inhibition in vivo at 150 µmol/kg: Rattus norvegicus, ip, 3.5 h
Procedure: Carrageenan-induced inflammation model has significant value for evaluating anti-inflammatory agents. Carrageenan administration causes an acute and local inflammatory response. In the early phase (0–1 h), bradykinin, histamine, tachykinins, complement and reactive oxygen and nitrogen species are involved, whereas prostaglandins and various cytokines such as IL-1β, TNF-α are released in the second phase, more than one hour after administration.
Total of 0.1 mL of an aqueous solution of carrageenan (1% w/v) was injected i.d. into the right hind paw of rats, with the left paw serving as control. The tested compounds (suspended in water with a few drops of Tween 80) were given i.p. (0.15 mmol/kg) 5 min before the carrageenan administration. After 3.5 h, the hind paws were excised and weighed separately. The produced edema was estimated as paw weight increase.

ovine COX-1 = test system: T1, ovine COX-1; experiment: COX Inhibitor Screening Assay kit, COX-1; assay type: biochemical; settings: compound 0.05 μM, arachidonic acid 0.1 μM
T1 construct: purchased Cayman Chemical Co., Ann Arbor, MI, USA
Excerpt: […]. κ-Carrageenan and lipoxygenase type I-B from soybean were purchased from Sigma (St. Louis, MO, USA). COX inhibition was estimated using the “COX Inhibitor Screening Assay” kit (Cayman Chemical Co., Ann Arbor, MI, USA). For the in vivo experiments, female Wistar rats (160–180 g, 4–5 months old) were kept in the Centre of the School of Veterinary Medicine (EL54 BIO42), Aristotelian University of Thessaloniki, which is registered by the official state veterinary authorities (presidential degree 56/2013, in harmonization with the European Directive 2010/63/EEC). The Animal Ethics Committee of the Prefecture of Central Macedonia (no. 270079/2500) approved the experimental protocols.
(§1) The effect of compounds on COX-1 and COX-2 activity was measured using a commercial kit and applying the instructions of the manufacturer. The kit uses ovine COX-1 and human recombinant COX-2 enzymes. The assay measures PGF2a produced by SnCl2 reduction of COX-derived PGH2. The prostanoid product was quantified via enzyme immunoassay using a broadly specific antibody that binds to all the major prostaglandin compounds.

soybean LOX = molecular target: T2, soybean LOX (Glycine max, UniProt P08170); experiment: inhibition of soybean lipoxygenase; assay type: biochemical; settings: for IC50: after 7 min of incubation, sodium linoleate 100 μM, pH 9.0, 28 °C; for % inhibition of lipoxygenase: highest soluble concentration
T2 construct: purchased Sigma (St. Louis, MO, USA)
T2 sequence (P08170 1-839): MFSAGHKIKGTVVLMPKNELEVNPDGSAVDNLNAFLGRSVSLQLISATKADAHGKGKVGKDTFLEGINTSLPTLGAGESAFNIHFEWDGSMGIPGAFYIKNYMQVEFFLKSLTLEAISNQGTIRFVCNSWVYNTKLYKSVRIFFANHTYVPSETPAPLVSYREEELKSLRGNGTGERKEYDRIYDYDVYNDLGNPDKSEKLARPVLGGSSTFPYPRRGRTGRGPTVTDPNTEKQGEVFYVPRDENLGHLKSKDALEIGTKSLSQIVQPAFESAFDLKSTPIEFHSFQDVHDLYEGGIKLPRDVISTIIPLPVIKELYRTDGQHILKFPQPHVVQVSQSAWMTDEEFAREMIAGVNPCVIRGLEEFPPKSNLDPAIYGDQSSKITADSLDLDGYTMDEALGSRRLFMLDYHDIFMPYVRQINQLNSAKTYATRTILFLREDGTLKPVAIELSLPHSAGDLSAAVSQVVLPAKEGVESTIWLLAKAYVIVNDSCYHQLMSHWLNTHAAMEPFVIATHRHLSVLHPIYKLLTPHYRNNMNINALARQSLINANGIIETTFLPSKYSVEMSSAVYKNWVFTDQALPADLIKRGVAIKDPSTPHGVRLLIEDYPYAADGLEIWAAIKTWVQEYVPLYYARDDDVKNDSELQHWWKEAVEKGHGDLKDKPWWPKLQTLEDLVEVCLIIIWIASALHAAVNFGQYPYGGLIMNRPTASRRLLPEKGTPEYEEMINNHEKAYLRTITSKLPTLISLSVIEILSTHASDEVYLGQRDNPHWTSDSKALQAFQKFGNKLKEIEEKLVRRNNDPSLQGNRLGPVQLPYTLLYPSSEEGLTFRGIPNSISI
Procedure: Soybean LOX, because of structural and functional similarities with mammalian LOXs, is commonly used for the study of anti-inflammatory agents.
The reaction mixture contained (final concentration) the test compounds, dissolved in ethanol (10–300 μM), or the solvent (control), soybean LOX, dissolved in 0.9% NaCl solution (250 u/mL) and sodium linoleate (100 μM), in Tris–HCl buffer, pH 9.0. […] For the estimation of the type of inhibition, the above experiments were repeated, using 1 mM sodium linoleate, which is higher than the saturating substrate concentration.

[2] = test system: rat hepatic microsomal membranes; experiment: Fe(II)-ascorbate induced lipid peroxidation of rat hepatic microsomal membranes; settings: 1 mM, after 45 min of incubation
Procedure: Enzymatically inactivated rat hepatic microsomal membranes, rich in polyunsaturated fatty acids, were used and peroxidation was induced by Fe(II)-ascorbate. Compounds 21 and 22, expected to exert antioxidant activity due to the tyrosine phenolic group, were tested.
The peroxidation of heat-inactivated (90°, 90 s) rat liver microsomal fraction was induced by ascorbic acid (0.2 mM) and ferrous sulphate (10 μΜ). The studied compounds, in dimethylsulfoxide, were added at 1 mM. Aliquots were taken from the incubation mixture (37 °C) for 45 min. Lipid peroxidation was assessed spectrophotometrically (535/600 nm) as 2-thiobarbituric acid reactive material.

human recombinant COX-2 = test system: T3, human recombinant COX-2; experiment: COX Inhibitor Screening Assay kit, COX-2; assay type: biochemical; settings: compound 0.05 μM, arachidonic acid 0.1 μM
T3 construct: purchased Cayman Chemical Co., Ann Arbor, MI, USA
Procedure: COX inhibition was estimated using the “COX Inhibitor Screening Assay” kit (Cayman Chemical Co., Ann Arbor, MI, USA).
as §1

[3] = preliminary stability with rat plasma (TLC); assay type: in vitro ADME; settings: acetone-water with rat plasma added, 37 °C, 24 h
Procedure: (§2) In a preliminary stability control experiment, compound 16, with the highest anti-inflammatory activity, was dissolved in an acetone-water mixture and incubated for 72 h at 37 °C. Samples were tested by thin layer chromatography (TLC) at the time of the preparation and after 2.5, 5, 24, 48, and 72 h. The same experiment was repeated, but plasma from a healthy rat was added, and tested by TLC at the time of preparation and after 24 h of incubation at 37 °C.
(§3) A solution of 16 in a 4:1 acetone–water mixture (1 mM) was prepared and 5 μL of this were applied on a TLC silica gel aluminum sheet and developed with petroleum ether-ethyl acetate (1:1), at the time of preparation and after 2.5, 5, 24, 48, and 72 h of incubation (37 °C). The same experiment was repeated, adding 1 mL of rat plasma. TLC was performed at the time of preparation and after 24 h.

[4] = preliminary stability in acetone-water (TLC); assay type: physicochemical; settings: 4:1 acetone-water, 1 mM, 37 °C, up to 72 h
Procedure: as §2, §3

| melting point | IC50 (soybean LOX) | SMILES | inhibition in vivo at 150 µmol/kg [1] | also measured |
| --- | --- | --- | --- | --- |
|  |  | O=C(O)Cc1c[nH]c2ccccc12 [Indole-3-acetic acid, reference compound] | 0% | % Edema Inhibition [1]: inactive |
|  |  | CC(C)Cc1ccc(C(C)C(=O)O)cc1 (stereo not shown) [Ibuprofen, reference compound] | 36% | COX-1 % Inhibition (ovine COX-1): 68%; % Edema Inhibition [1]: 36 ** % |
| 68 to 70 °C | 85 µM | COc1cc(COC(=O)C(Cc2ccc(O)cc2)NC(=O)C(C)c2cccc(C(=O)c3ccccc3)c2)cc(OC)c1OC (stereo not shown) [Compound 22, 3,4,5-Trimethoxybenzyl 2-(2-(3-benzoylphenyl)propanamido)-3-(4-hydroxyphenyl) propanoate] | 59% | effect against lipid peroxidation [2]: poor |
| 50 to 53 °C |  | COc1ccc2cc(C(C)C(=O)N3CCCC3C(=O)OCc3cc(OC)c(OC)c(OC)c3)ccc2c1 (stereo not shown) [Compound 20, 3,4,5-Trimethoxybenzyl1-(2-(6-methoxynaphthalen-2-yl)propanoyl) pyrrolidine-2-carboxylate] | 37% | % inhibition of lipoxygenase (soybean LOX; at 100 μΜ): 40% |
|  |  | COC(=O)C1CCCN1C(=O)C(C)c1ccc(CC(C)C)cc1 (stereo not shown) [Compound 8a] | 20% |  |
|  |  | CC(C(=O)O)c1cccc(C(=O)c2ccccc2)c1 (stereo not shown) [Ketoprofen] |  | COX-2 % Inhibition (human recombinant COX-2): 49%; COX-1 % Inhibition (ovine COX-1): 94% |
| 86 to 88 °C | 64 µM | COc1cc(COC(=O)C(Cc2ccc(O)cc2)NC(=O)C(C)c2ccc(CC(C)C)cc2)cc(OC)c1OC (stereo not shown) [Compound 21, 3,4,5-Trimethoxybenzyl3-(4-hydroxyphenyl)-2-(2(4-isobutylphenyl)propanamido) propanoate] | 67% | COX-1 % Inhibition (ovine COX-1): 51%; effect against lipid peroxidation [2]: poor |
|  |  | COC(=O)C(C)NC(=O)Cc1c[nH]c2ccccc12 (stereo not shown) [Compound 13a] | 18% |  |
|  |  | COc1cc(COC(=O)CCNC(=O)C(C)c2cccc(C(=O)c3ccccc3)c2)cc(OC)c1OC (stereo not shown) [Compound 16, 3,4,5-Trimethoxybenzyl 3-(2-(3-benzoylphenyl)propanamido)propanoate] | 91% | % inhibition of lipoxygenase (soybean LOX; at 150 μΜ): 20%; COX-1 % Inhibition (ovine COX-1): 28%; stability (hydrolysis, TLC) [3]: not hydrolyzed; % Edema Inhibition [1]: 91 *** %; stability (hydrolysis, TLC) [4]: not hydrolyzed |
|  |  | COc1cc(COC(=O)C(C)NC(=O)Cc2c[nH]c3ccccc23)cc(OC)c1OC (stereo not shown) [Compound 23, 3,4,5-Trimethoxybenzyl 2-(2-(1H-indol-3-yl)acetamido)propanoate] | 40.5% | % inhibition of lipoxygenase (soybean LOX; at 150 μΜ): 15% |
|  |  | COC(=O)CCNC(=O)C(C)c1ccc(CC(C)C)cc1 (stereo not shown) [Compound 5a] | 14% |  |
| 85 to 87 °C | 83 µM | COc1cc(COC(=O)C2CCCN2C(=O)C(C)c2ccc(CC(C)C)cc2)cc(OC)c1OC (stereo not shown) [Compound 18] | 49% |  |
| 58 to 60 °C | 128 µM | COc1cc(COC(=O)C2CCCN2C(=O)Cc2c[nH]c3ccccc23)cc(OC)c1OC (stereo not shown) [Compound 24, 3,4,5-Trimethoxybenzyl1-(2-(1H-indol-3-yl)acetyl)pyrrolidine-2carboxylate] | 0% |  |
| 73 to 75 °C | 160 µM | COc1cc(COC(=O)CCNC(=O)C(C)c2ccc(CC(C)C)cc2)cc(OC)c1OC (stereo not shown) [Compound 15, 3,4,5-Trimethoxybenzyl 3-(2-(4-isobutylphenyl)propanamido)propanoate] | 35% |  |
|  |  | COC(=O)C1CCCN1C(=O)Cc1c[nH]c2ccccc12 (stereo not shown) [Compound 14a, 1-(2-(1H-indol-3-yl)acetyl)pyrrolidine-2-carboxylic acid (14) methyl ester] | 0% |  |
|  | 140 µM | COc1cc(COC(=O)C2CCCN2C(=O)C(C)c2cccc(C(=O)c3ccccc3)c2)cc(OC)c1OC (stereo not shown) [Compound 19, 3,4,5-Trimethoxybenzyl 1-(2-(3-benzoylphenyl)propanoyl)pyrrolidine-2 carboxylate] | 51% |  |
|  |  | COc1ccc2cc([C@H](C)C(=O)O)ccc2c1 [Naproxen] | 11% | COX-2 % Inhibition (human recombinant COX-2): 17%; COX-2 % Inhibition (human recombinant COX-2; listed as naproxen): weak inhibitor; COX-1 % Inhibition (ovine COX-1): 34%; COX-1 % Inhibition (ovine COX-1; listed as naproxen): mild activity |
|  | 41 µM | COc1ccc2cc([C@H](C)C(=O)NCCC(=O)OCc3cc(OC)c(OC)c(OC)c3)ccc2c1 [Compound 17, (S)-3,4,5-trimethoxybenzyl 3-(2-(6-methoxynaphthalen-2-yl)propanamido)propanoate] | 23% |  |
